Activity calls are given as the source filed them.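 How the source made its calls: active means compounds giving half or more protection of infected cells from virus-caused growth loss, again on retest; inactive means the rest.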 Where a SMILES comes first, the peptide text is derived from it. The star is where a group is joined. Boc = CC(C)(C)OC(=O)*
Test system: CEM cells HIV-1 protection, formazan growth assay
Assay: NCI AIDS Antiviral Assay
Conditions: for IC50: measured here: growth of uninfected CEM cells
How it was run: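 Steps: treat uninfected and HIV-1-infected human CEM cells at five drug levels; quantify growth by soluble formazan; retest any compound reaching 50% protection; classify actives from the retest.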

COc1cc2c(cc1OC)C1Cc3sccc3CN1CC2 (stereo not drawn)
outcome: inactive

O=C(O)CCc1ccc(NC(=O)CN(CCO)CCO)cc1
EC50: > 200 µM
IC50: > 200 µM

c1ccc2c(c1)CCN(NCCN1CCCC1)C2
outcome: inactive

Cc1nc2c(O)ccc(O)c2nc1C
EC50: > 200 µM
IC50: 17.8 µM

NC(=O)c1cc(N(CCO)CCO)c([N+](=O)[O-])cc1[N+](=O)[O-]
EC50: > 200 µM
IC50: > 200 µM

O=[N+]([O-])c1ccc(Cl)cc1C1SCc2nc3ccccc3n21 (stereo not drawn)
outcome: inactive

COC(=O)c1ccccc1C#CC#Cc1ccccc1C(=O)OC
EC50: > 200 µM
IC50: 24 µM

O=c1[nH]c(=O)n(C2CC(O)C(CO)O2)c2nc3cc4ccccc4cc3nc12 (stereo not drawn)
EC50: > 200 µM
IC50: > 200 µM

Clc1cc(C(c2cc(Cl)sc2Cl)c2cc(Cl)sc2Cl)c(Cl)s1
EC50: > 50.1 µM
IC50: > 50.1 µM

CN(CC#N)[C@H]1CCC[C@]1(O)/C=C/[Si](C)(C)C
EC50: > 28.8 µM
IC50: > 28.8 µM

O=C1/C(=C/c2cccc(Br)c2)Cc2ccccc21
EC50: > 200 µM
IC50: 17 µM

COc1cc(N=Nc2cc(NC(C)=O)c(N=Nc3ccc(S(=O)(=O)O)cc3)cc2S(=O)(=O)O)c(C)cc1N=Nc1cc(OC)c(NC(=O)c2ccc(N)cc2)cc1C
EC50: 4.57 µM
IC50: 191 µM

Cn1cc(-c2ccc(CCOC3CCCCO3)cc2)c2c(C#N)cccc21 (stereo not drawn)
EC50: > 200 µM
IC50: 38.9 µM

COc1cccc2c1[C@H]1OC(=O)NC1CCCCC2 (stereo partly drawn)
EC50: > 200 µM
IC50: > 200 µM

C=CCC1(O)CC(n2ccc(=O)[nH]c2=O)OC1CO[Si](C)(C)C(C)(C)C (stereo not drawn)
EC50: > 200 µM
IC50: > 100 µM

C[N+]12CCC34c5ccccc5NC3C3C(CC(=O)[O-])OCC=C(C1)C3CC42 (stereo not drawn)
outcome: inactive

CCOC(=O)c1ncn2c1[nH]c(=O)c1ccccc12
EC50: > 7.41 µM
IC50: > 7.41 µM

COc1ccc(-n2cnc3c(NC(CCSC)C(=O)O)ncnc32)cc1 (stereo not drawn)
EC50: 75.9 µM
IC50: > 200 µM

S=C(Nc1ccc(Cl)c(Cl)c1)N1c2ccccc2-n2cccc2C1c1cccnc1 (stereo not drawn)
EC50: > 49 µM
IC50: 25.1 µM

CC[C@@H](CCCCC1CC[C@H]2CC(=O)C[C@@H]12)OC (stereo partly drawn)
EC50: > 200 µM
IC50: 102 µM

O=C(Nc1cccc(C(F)(F)F)c1)C(=O)C(C(=O)c1ccc(Cl)c(Cl)c1)C1OC(=O)c2ccccc21 (stereo not drawn)
EC50: > 158 µM
IC50: 13.8 µM

COc1cc(/C=c2\sc3n(c2=O)C(c2ccc(Cl)cc2)C2=C(CCCC2C)N=3)cc(OC)c1OC (stereo not drawn)
EC50: > 200 µM
IC50: > 200 µM

O=C(/C=C/c1ccc2c(c1)OCO2)N1CCCCC1
outcome: inactive

COc1ccc2c(c1)OC(=O)C(S(=O)(=O)c1ccccc1)C2 (stereo not drawn)
EC50: > 295 µM
IC50: > 295 µM

O=C(CCc1ccc(O)cc1)NCCc1ccc(O)cc1
EC50: 38.9 µM
IC50: 166 µM

C[C@@H](NC(=O)c1ccccc1SC(=O)OCCBr)C(N)=O
EC50: 4.57 µM
IC50: > 200 µM

CC(NC(=O)C1CCCN1C(=O)CNC(=O)OC(C)(C)C)C(=O)O (stereo not drawn) (Boc-Gly-Pro-Ala-OH; configuration not given here)
EC50: > 200 µM
IC50: > 200 µM

O=C(O)CN1C(=O)CSC1=S
EC50: > 1290 µM
IC50: 794 µM

Cc1c(C#N)c2ccccc2c2nc3ccccc3n12
EC50: > 200 µM
IC50: 129 µM

CC(=O)NC(CCCCNC(=O)N(CCCl)N=O)C(=O)NCc1ccccc1 (stereo not drawn)
EC50: > 603 µM
IC50: 132 µM

CC(=O)NCCCCNCCCNC(C)=O
EC50: > 200 µM
IC50: > 200 µM

N#C/C(=C/NC(=S)Nc1ccc(Cl)c(Cl)c1)C(N)=O
EC50: > 200 µM
IC50: 38 µM

CC1=Nc2ccccc2C1C(Cc1ccccc1N)c1c(C)[nH]c2ccccc12 (stereo not drawn)
outcome: inactive

COc1ccc(-c2c(C3=NCCN3)nnn2-c2ccc(Cl)cc2)cc1
EC50: > 126 µM
IC50: 91.2 µM

NC(=O)c1cc2cc(O)c(O)cc2cn1
EC50: > 209 µM
IC50: 12.6 µM

CC(C)(C)C(=O)OC(N)/C=C/c1ccccc1 (stereo not drawn)
EC50: > 200 µM
IC50: > 200 µM

N#CCCSC1SC(=C2SC3=C(SCCS3)S2)SC1SCCC#N (stereo not drawn)
EC50: > 200 µM
IC50: > 200 µM

COC(=O)C1=C(C(=O)OC)C2(c3ccccc3)c3ccccc3C(=O)C1N2C1CCCCC1 (stereo not drawn)
EC50: > 200 µM
IC50: 16.6 µM

O=C(/C=C/c1ccccc1)CCC1C(=O)c2ccccc2C1=O
EC50: > 23.4 µM
IC50: > 23.4 µM

COc1ccc(CCC2c3cc(OC)c(OC)cc3CCN2C)cc1OC (stereo not drawn)
EC50: > 676 µM
IC50: 240 µM

C=C(C)[C@@H]1CC[C@]2(CNC(=O)CC3(CC(=O)O)CCCC3)CC[C@]3(C)[C@H](CC[C@@H]4[C@@]5(C)CC[C@H](NC(=O)CC6(CC(=O)O)CCCC6)C(C)(C)[C@@H]5CC[C@]43C)[C@@H]12
EC50: > 200 µM
IC50: 13.5 µM

Fc1ccc(N=C2C=CC(=Nc3ccc(F)cc3)c3ccccc32)cc1
outcome: inactive

CC(C)=CC1(C)/C(=N\O)C(C)(CC(C)C)C(=O)N1O (stereo not drawn)
EC50: > 933 µM
IC50: > 933 µM

CC(/C=C/NNC1=NC(c2ccccc2)C(c2ccccc2)=NN1)Sc1ccccc1N (stereo not drawn)
EC50: > 81.3 µM
IC50: 1.45 µM

CCCNC(=O)C(C)(Cl)C(=O)c1ccccc1O (stereo not drawn)
EC50: > 479 µM
IC50: 209 µM

N#CS/C(Cl)=C(/C(Cl)=C(Cl)Cl)[N+](=O)[O-]
outcome: inactive

O=C1CCC2COc3ccc(O)c1c32 (stereo not drawn)
outcome: inactive

O=[N+]([O-])/C(Cl)=C(\Nc1ccccc1)C(Cl)=C(Cl)Cl
EC50: > 200 µM
IC50: 32.4 µM

CC1(C)CC(=O)C(/C=N/C(=S)NCc2ccccc2)=C(O)C1
EC50: > 200 µM
IC50: > 200 µM

Cc1ccc(NC(=O)C2C(=O)N(c3ccc(C)c(C)c3)C(=O)/C2=N/O)cc1C (stereo not drawn)
EC50: > 19.1 µM
IC50: > 19.1 µM

CN(C)c1ccc(C=Cc2ccc([N+](=O)[O-])cc2)cc1.[C-]#[O+].[C-]#[O+].[C-]#[O+].[Cr]
EC50: > 20 µM
IC50: 2.4 µM

CC(NC(=O)c1ccccc1SC(=O)CCCCC[n+]1ccccc1)C(N)=O (stereo not drawn)
EC50: 2.75 µM
IC50: 30.2 µM

CC1(C)COC(c2ccc(CC(O)c3ccccc3)cc2)=N1 (stereo not drawn)
EC50: > 200 µM
IC50: 41.7 µM

O=c1[nH]c2cc([N+](=O)[O-])ccc2nc1/C=C(\O)c1ccc([N+](=O)[O-])cc1
EC50: > 200 µM
IC50: 186 µM

Cc1c(NC(=O)CSC(=S)N2CCN(Cc3ccccc3)CC2)c(=O)n(-c2ccccc2)n1C
outcome: inactive

CC(O)[C@@]1(c2ccccc2)CC2(CCN(C)CC2)O[C@H]1C (stereo partly drawn)
EC50: > 200 µM
IC50: > 200 µM

COc1cc2nc(Sc3c([N+](=O)[O-])ncn3C)[nH]c2cc1OC
EC50: > 389 µM
IC50: 5.5 µM

Nc1c(C(=O)N/N=C/c2ccccc2)sc(=S)n1-c1ccccc1
EC50: > 4.07 µM
IC50: > 4.07 µM

COc1ccc(OC)c(/C=C(/C#N)c2ccccc2)c1
EC50: > 10.2 µM
IC50: > 10.2 µM

O=C1C[C@]2(CC(O)CO)CC(O1)[C@@H](I)CC21OCCO1 (stereo partly drawn)
EC50: > 200 µM
IC50: > 200 µM

CC12C(=O)OC(=O)C1(C)C1C=CC2O1 (stereo not drawn)
EC50: > 200 µM
IC50: 132 µM

CN(C)c1ccc(/C=C(/C(=O)O)c2csc(-c3nc(/C(=C\c4ccc(N(C)C)cc4)C(=O)O)cs3)n2)cc1
EC50: > 34.7 µM
IC50: > 34.7 µM

CN1C(c2ccccc2)CC(=NOCc2ccccc2)CC1c1ccccc1 (stereo not drawn)
EC50: > 200 µM
IC50: 8.71 µM

CCCCCCCCCCCCCCCC=C(c1cc(Br)cc(C(=O)OC)c1OC)c1cc(Br)cc(C(=O)OC)c1OC
EC50: > 25.7 µM
IC50: > 25.7 µM

— PubChem BioAssay AID179 (DTP/NCI, 2004)
